Measured values from US8673938B2, “Chemical compounds” (priority 2006, dated 2014).

Molecular target: human 11βHSD1 enzyme (Homo sapiens (Human), UniProt P28845)
Assay: biochemical
Conditions: read-out: % inhibition of human 11-βHSD

Chain of human 11βHSD1 enzyme (P28845 whole entry): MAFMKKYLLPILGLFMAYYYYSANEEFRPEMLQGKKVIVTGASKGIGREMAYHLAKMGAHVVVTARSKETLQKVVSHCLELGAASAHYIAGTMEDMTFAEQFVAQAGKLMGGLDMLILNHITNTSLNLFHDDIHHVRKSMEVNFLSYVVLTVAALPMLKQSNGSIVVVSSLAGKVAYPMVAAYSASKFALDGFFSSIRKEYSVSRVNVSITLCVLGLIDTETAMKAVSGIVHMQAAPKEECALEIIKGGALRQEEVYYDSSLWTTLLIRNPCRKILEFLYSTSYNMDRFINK

Row | Compound | inhibition at 30 µM [%]
1 | CCCSc1nc(N2CCC(CC(=O)O)CC2)ccc1C(=O)N[C@H]1C2CC3CC1C[C@@](O)(C3)C2 [Example 86, 2-[1-[5-[[(2r,5s)-5-hydroxy-2-adamantyl]carbamoyl]-6-propylsulfanyl-pyridin-2-yl]-4-piperidyl]acetic acid] | 90
2 | CCCSc1nc(N2CC(OCC(=O)O)C2)ccc1C(=O)NC1CCCCC1 [Example 40, 2-[1-[5-(cyclohexylcarbamoyl)-6-propylsulfanyl-pyridin-2-yl]azetidin-3-yl]oxyacetic acid] | 87
3 | CCCSc1nc(N2CCC[C@H](CC(=O)O)C2)c(F)cc1C(=O)NC1CCCCC1 [Example 187, (R)-2-(1-(5-(Cyclohexylcarbamoyl)-3-fluoro-6-(propylthio)pyridin-2-yl)piperidin-3-yl)acetic acid] | 90
4 | CCCSc1nc(N2CCC(C3(C(=O)O)CC3)CC2)ccc1C(=O)NC1CCCCC1 [Example 50, 1-[1-[5-(cyclohexylcarbamoyl)-6-propylsulfanyl-pyridin-2-yl]-4-piperidyl]cyclopropane-1-carboxylic acid] | 81
5 | CCCCc1nc(N2CC3C(C2)C3C(=O)O)ccc1C(=O)NC1C2CC3CC(C2)CC1C3 (stereo not shown) [Example 163, 3-[5-(2-adamantylcarbamoyl)-6-butyl-pyridin-2-yl]-3-azabicyclo[3.1.0]hexane-6-carboxylic acid] | 93
6 | O=C(O)CO[C@@H]1CCN(c2ccc(C(=O)NC3C4CC5CC(C4)CC3C5)c(SC3CCCCC3)n2)C1 (stereo partly drawn) [Example 72, 2-[(3R)-1-[5-(2-adamantylcarbamoyl)-6-cyclohexylsulfanyl-pyridin-2-yl]pyrrolidin-3-yl]oxyacetic acid] | 84
7 | O=C(O)C[C@@H]1CCCN(c2ccc(C(=O)NC3CCCCC3)c(OCCc3ccc(F)cc3)n2)C1 [compound 135, 2-[(3S)-1-[5-(cyclohexyl-carbamoyl)-6-[2-(4-fluorophenyl)ethoxy]pyridin-2-yl]-3-piperidyl] acetic acid] | 92
8 | O=C(O)C[C@@H]1CCCN(c2ccc(C(=O)NC3CCCCC3)c(N3CCCCC3)n2)C1 [compound 141, 2-[(3S)-1-[5-(cyclohexylcarbamoyl)-6-(1-piperidyl)pyridin-2-yl]-3-piperidyl]acetic acid] | 96
9 | O=C(O)C[C@H]1CCN(c2ccc(C(=O)N[C@H]3C4CC5CC3C[C@](O)(C5)C4)c(SC3CCCCC3)n2)C1 [Example 100, 2-[(3R)-1-[6-cyclohexylsulfanyl-5-[((2r,5s)-5-hydroxy-2-adamantyl)carbamoyl]pyridin-2-yl]pyrrolidin-3-yl]acetic acid] | 92
10 | CCCSc1nc(Oc2cccc(C(=O)O)c2)ccc1C(=O)NC1CCCCC1 [Example 13, 3-[5-(cyclohexylcarbamoyl)-6-propylsulfanyl-pyridin-2-yl]oxybenzoic acid] | 94
11 | CCCOc1nc(N2CCC[C@@H](CC(=O)O)C2)ccc1C(=O)N[C@H]1C2CC3CC1C[C@@](O)(C3)C2 [Example 109, 2-[(3S)-1-[5-[[(2r,5s)-5-hydroxy-2-adamantyl]carbamoyl]-6-propoxy-pyridin-2-yl]-3-piperidyl]acetic acid] | 88
12 | CCCSc1nc(Sc2cccc(C(=O)O)c2)ccc1C(=O)NC1CCCCC1 [Example 14, 3-[5-(cyclohexylcarbamoyl)-6-propylsulfanyl-pyridin2-yl]sulfanylbenzoic acid] | 78
13 | CCCSc1nc(N2CC[C@@H](CC(=O)O)C2)ccc1C(=O)N[C@H]1C2CC3CC1C[C@](OC(F)F)(C3)C2 [Example 180, 2-[(3S)-1-[5-[[(2r,5s)-5-(Difluoromethoxy)-2-adamantyl]carbamoyl]-6-propylsulfanyl-pyridin-2-yl]pyrrolidin-3-yl]acetic acid] | 95
14 | O=C(O)CO[C@@H]1CCN(c2ccc(C(=O)NC3C4CC5CC(C4)CC3C5)c(SC3CCCC3)n2)C1 (stereo partly drawn) [Example 70, 2-[(3R)-1-[5-(2-adamantylcarbamoyl)-6-cyclopentylsulfanyl-pyridin-2-yl]pyrrolidin-3-yl]oxyacetic acid] | 95
15 | CCCOc1nc(N2CCC[C@@H](CC(=O)O)C2)ccc1C(=O)N[C@H]1C2CC3CC1C[C@](OC(F)F)(C3)C2 [Example 181, 2-[(3S)-1-[5-[[(2r,5s)-5-(Difluoromethoxy)-2-adamantyl]carbamoyl]-6-propoxy-pyridin-2-yl]-3-piperidyl]acetic acid] | 93
16 | O=C(O)C[C@H]1CCCN(c2ccc(C(=O)NC3CCCCC3)c(SC3CCCC3)n2)C1 [Example 55, 2-[(3R)-1-[5-(cyclohexylcarbamoyl)-6-cyclopentylsulfanyl-pyridin-2-yl]-3-piperidyl]acetic acid] | 89
17 | CC(C)CCSc1nc(N2CCC[C@@H](CC(=O)O)C2)ccc1C(=O)NC1C2CC3CC1CC(O)(C3)C2 (stereo partly drawn) [Example 104, 2-[(3S)-l-[5-[[(2r,5s)-5-hydroxy-2-adamantyl]carbamoyl)-6-(3-methylbutylsulfanyl)pyridin-2-yl]-3-piperidyl]acetic acid] | 87

Row | Compound | inhibition at 30 µM [%]
18 | CCCSc1nc(N2CCCC(C(C)(C)C(=O)O)C2)ccc1C(=O)N[C@H]1C2CC3CC1C[C@](O)(C3)C2 (stereo partly shown) [Example 92, 2-[1-[5-[((2r,5s)-5-hydroxy-2-adamantyl)carbamoyl]-6-propylsulfanyl-pyridin-2-yl]-3-piperidyl]-2-methyl-propanoic acid] | 89
19 | O=C(O)C[C@H]1CCCN(c2ccc(C(=O)NC3CCCCC3)c(SCCc3ccccc3)n2)C1 [Example 129, 2-[(3R)-1-[5-(cyclohexylcarbamoyl)-6-phenethylsulfanyl-pyridin-2-yl]-3-piperidyl]acetic acid] | 82
20 | O=C(O)C[C@@H]1CCCN(c2ccc(C(=O)NC3CCCCC3)c(SCCc3cnccn3)n2)C1 [compound 132, 2-[(3S)-1-[5-(cyclohexyl-carbamoyl)-6-(2-pyrazin-2-ylethylsulfanyl)pyridin-2-yl]-3-piperidyl] acetic acid] | 98
21 | O=C(O)C[C@@H]1CCCN(c2ccc(C(=O)N[C@H]3C4CC5CC3C[C@](OC(F)F)(C5)C4)c(SC3CCCC3)n2)C1 [Example 178, 2-[(3S)-1-[6-Cyclopentylsulfanyl-5-[[(2r,5s)-5-(difluoromethoxy)-2-adamantyl]carbamoyl]pyridin-2-yl]-3-piperidyl]acetic acid] | 93
22 | CCCSc1nc(N2CCOC(C(=O)O)C2)ccc1C(=O)NC1CCCCC1 (stereo not shown) [Example 51, 4-[5-(cyclohexylcarbamoyl)-6-propylsulfanyl-pyridin-2-yl]morpholine-2-carboxylic acid] | 90
23 | O=C(O)C[C@@H]1CCCN(c2ccc(C(=O)N[C@H]3C4CC5CC3C[C@@](O)(C5)C4)c(SC3CCCCC3)n2)C1 [Example 103] | 90
24 | O=C(O)C[C@@H]1CCCN(c2ccc(C(=O)N[C@H]3C4CC5CC3C[C@](OC(F)F)(C5)C4)c(SC3CCCCC3)n2)C1 [Example 176, 2-[(3S)-1-[6-Cyclohexylsulfanyl-5-[[(2r,5s)-5-(difluoromethoxy)-2-adamantyl]carbamoyl]pyridin-2-yl]-3-piperidyl]acetic acid] | 92
25 | CCCSc1nc(N2CC[C@@H](CC(=O)O)C2)ccc1C(=O)NC1C2CC3CC1CC(O)(C3)C2 (stereo partly drawn) [Example 79, 2-[(3S)-1-[5-[((2r,5s)-5-hydroxy-2-adamantyl)carbamoyl]-6-propylsulfanyl-pyridin-2-yl]pyrrolidin-3-yl]acetic acid] | 90
26 | O=C(O)C[C@H]1CCN(c2ccc(C(=O)N[C@H]3C4CC5CC3C[C@@](O)(C5)C4)c(SC3CCCC3)n2)C1 [Example 95, 2-[(3R)-1-[6-cyclopentylsulfanyl-5-[((2r,5s)-5-hydroxy-2-adamantyl)carbamoyl]pyridin-2-yl]pyrrolidin-3-yl]acetic acid] | 88
27 | CCCSc1nc(N2CCCC(CCC(=O)O)C2)ccc1C(=O)NC1CCCCC1 (stereo not shown) [Example 39, 3-[1-[5-(cyclohexylcarbamoyl)-6-propylsulfanyl-pyridin-2-yl]-3-piperidyl]propanoic acid] | 74
28 | CCCSc1nc(N2CCC(C)(C(=O)O)CC2)ccc1C(=O)NC1CCCCC1 [Example 32, 1-[5-(cyclohexylcarbamoyl)-6-propylsulfanyl-pyridin-2-yl]-4-methyl-piperidine-4-carboxylic acid] | 89
29 | CCCSc1nc(N(C)[C@H]2CC[C@H](C(=O)O)CC2)ccc1C(=O)NC1CCCCC1 [Example 11, 4-[[5-(cyclohexylcarbamoyl)-6-propylsulfanyl-pyridin-2-yl]-methyl-amino]cyclohexane-1-carboxylic acid] | 83
30 | CCCSc1nc(N2CCC[C@@H](CC(=O)O)C2)ccc1C(=O)N1CCC(C(N)=O)CC1 [Example 120, 2-[(3S)-1-[5-(4-carbamoylpiperidine-1-carbonyl)-6-propylsulfanyl-pyridin-2-yl]-3-piperidyl]acetic acid] | 104
31 | CCCSc1nc(N2CCN(CC(=O)O)CC2)ccc1C(=O)NC1CCCCC1 [Example 8, 2-[4-[5-(cyclohexylcarbamoyl)-6-propylsulfanyl-pyridin-2-yl]piperazin-1-yl]acetic acid] | 78
32 | O=C(O)C[C@@H]1CCCN(c2ccc(C(=O)NC3CCCCC3)c(SCCc3cccnc3)n2)C1 [compound 131, 2-[(3S)-1-[5-(cyclohexyl-carbamoyl)-6-(2-pyridin-3-ylethylsulfanyl)pyridin-2-yl]-3-piperidyl] acetic acid] | 91
33 | CCCSc1nc(N2CCC(C(=O)O)C2)ccc1C(=O)N[C@H]1C2CC3CC1C[C@](OC(F)F)(C3)C2 (stereo partly drawn) [Example 185, 1-[5-[[(2r,5S)-5-(difluoromethoxy)-2-adamantyl]carbamoyl]-6-propylsulfanyl-pyridin-2-yl]pyrrolidine-3-carboxylic acid] | 97
34 | CCCSc1nc(N2CCC[C@@H](CC(=O)O)C2)ccc1C(=O)N[C@H]1C2CC3CC1C[C@](OC(F)F)(C3)C2 [Example 179, 2-[(3S)-1-[5-[[(2r,5s)-5-(Difluoromethoxy)-2-adamantyl]carbamoyl]-6-propylsulfanyl-pyridin-2-yl]-3-piperidyl]acetic acid] | 87
